Measured values published in US10035806B2, “Derivatized corroles and metallocorroles and their use as imaging and therapeutic agents” (CALIFORNIA INSTITUTE OF TECHNOLOGY, priority 2015, dated 2018).
Several values for one entry are separate records, joined by “and”; a condition that tells them apart may be missing. Identical values can stand only once.

Experiments:
OVCAR-3 = assay: MTS assay (cytotoxicity); assay type: cell-based, human; settings: OVCAR-3 (ovarian), 72 h exposure in the dark, mean of three experiments
Source text: (§1) Reagents were obtained from the indicated suppliers: HBSS without phenol red and trypsin-EDTA (0.25%), Invitrogen/Gibco; PBS, Mediatech; 4′,6-diamidino-2-phenylindole dihydrochloride (DAPI) and DMSO, Sigma-Aldrich; paraformaldehyde, Electron Microscopy Sciences; WGA, Alexa Fluor 488 conjugate, Invitrogen/Molecular Probes; and ProLong Gold Antifade Mountant with DAPI, Life Technologies. Human Cancer Cell Lines. Four cell lines from the NCI60 cell panel (Shoemaker RH (2006) The NCI60 human tumour cell line anticancer drug screen. Nat Rev Cancer 6(10):813-823) representing four distinct tumor types were used in this study: DU-145, prostate; MDA-MB-231, breast; SK-MEL-28, melanoma; and OVCAR-3, ovarian. Cells were grown in RPMI 1640 cell culture medium (Mediatech) containing 2 mM L-glutamine, supplemented with 10% FBS (Omega Scientific), and maintained at 37° C. under 5% CO2 in a humidified incubator.
(§2) At the time of drug treatment, stock solutions of 1-4 were diluted to 10-fold the desired final test concentrations with RPMI medium 1640. Aliquots of […] of these diluted solutions were added to the appropriate microtiter wells containing 90 μL of medium, resulting in the required final drug concentrations (eight concentrations per compound, ranging from 0.3 to 600 μM). The final concentration of DMSO in test culture was <1%. […] Following 72 h of exposure at 37° C., cell viability was determined using the MTS assay (CellTiter 96 Aqueous One Cell Proliferation Assay; Promega) according to the manufacturer's instructions. Absorbances were measured using a microplate reader (Synergy 4; Biotek Instruments) at 490 nm. Experiments were performed in triplicate and each dose-response curve represents the mean of three or more independent experiments. Spectrophotometric data were analyzed by sigmoid dose-response, nonlinear regression analysis; the IC50, Emax values, and associated SE were calculated using GraphPad Prism 6 (GraphPad Software).
(§3) The effects of bis-sulfonate, carboxylate, and aminocaproate ring substituents on gallium corrole cytotoxicities were examined using four human cancer cell lines, representing tumors of different origin selected based on previously described sensitivities.

DU-145 = assay: MTS assay (cytotoxicity); assay type: cell-based, human; settings: for IC50: DU-145 (prostate), 72 h exposure in the dark, MTS assay, mean of three experiments
Source text: as §1, §2, §3

MDA-MB-231 = assay: MTS assay (cytotoxicity); assay type: cell-based, human; settings: MDA-MB-231 (breast), 72 h exposure in the dark, mean of three experiments
Source text: as §1, §2, §3

SK-MEL-28 = assay: MTS assay (cytotoxicity); assay type: cell-based, human; settings: SK-MEL-28 (melanoma), 72 h exposure in the dark, mean of three experiments
Source text: as §1, §2, §3

[1] = tested on: DU-145, SK-MEL-28, MDA-MB-231, OVCAR-3; assay: Uptake of gallium corroles (ImageXpress confocal), cell lines taken together; assay type: cell-based, human; settings: 30 μM
Experimental: The intracellular uptake of gallium corroles was quantified using the ImageXpressultra laser point-scanning confocal microscope (Molecular Devices). The fluorescence image acquisition settings were as previously reported (Lim P, et al. (2012), Chem Res Toxicol 25(2):400-409.). Cells (DU-145, SK-MEL-28, MDA-MB-231, and OVCAR-3) were seeded in 96-well dishes (8×10^3 cells per well in 0.1 mL) and allowed to attach overnight. Complex 1, 2, 3, or 4 was added directly to cell media at 30 μM final concentration or media only control, and incubated for 0.25, 1, 3, or 24 h at 37° C. in the dark under a 5% CO2 atmosphere. Cells were fixed and labeled in situ with WGA-Alexa Fluor 488 conjugate and DAPI to allow for the identification of cell boundary and nucleus, respectively. The quantification of blue (DAPI) fluorescence signals in each sample yielded the total number of cells in that population. Corresponding determination of red (corrole) fluorescence within each cell, corrected for background fluorescence from untreated cells, provided the number of cells containing corroles. For each corrole concentration at various time points, fluorescence data were obtained for 1,000-22,000 individual cells. Data acquisitions and analyses were performed as described (Lim P, et al. (2012), Chem Res Toxicol 25(2):400-409). The percentage of corrole-positive cells and the median fluorescence intensity (median RFU) for each treatment were plotted in a three-axis graph using Microsoft Office Excel 2007 (Microsoft Corporation).
To quantify the kinetics of intracellular uptake and accumulation of each derivative, ImageXpressultra, a laser point-scanning confocal microscope, was used for analyses. […] Cells were incubated at 37° C. in the dark for 0.25, 1, 3, or 24 h. […] Within 15 min, Complex 4 fluorescence was observable in ˜80% of ovarian cancer cells, 97% of breast cancer cells, and >99% of prostate cancer and melanoma cells, whereas up to 3 and 24 h were required to label >80% of cells from all four cancer lines with Complexes 3 and 2, respectively. […]

human cancer cells = settings: previous work, cited from earlier work
MDA-MB-231 cells = settings: literature values, read-out: IC50 reported for cisplatin; cited from earlier work
murine model animals = settings: previous work; cited from earlier work

Structure (SMILES)	IC50 (OVCAR-3) [µM]	IC50 (DU-145) [µM]	IC50 (MDA-MB-231) [µM]	IC50 (SK-MEL-28) [µM]	effect of pyridinium substitution (in place of bis-sulfonic acids) on uptake, activity, toxicity (human cancer cells)	further results
Fc1c(F)c(F)c(C2=C3C=CC4=[N+]3[Ga-]35[n]6c2ccc6C(c2c(F)c(F)c(F)c(F)c2F)=c2ccc([n]23)=C(c2c(F)c(F)c(F)c(F)c2F)c2ccc4[n]25)c(F)c1F (stereo not shown) [Complex 1, gallium(III) tris(pentafluorophenyl)corrole]	58.1	135	101	61.3	–	time required for significant uptake (≥80% cells) ([1]; melanoma, ovarian, and breast cancer cell lines): 24 h
COc1ccc(C2=c3ccc4[n]3[Mn-]35[n]6c(ccc62)C(c2cc[n+](C)cc2)=C2C=CC(=[N+]23)c2ccc([n]25)C=4c2cc[n+](C)cc2)cc1 (stereo not shown) [Complex 5]	–	–	–	–	improve uptake and activity	–
O=C(O)C1=CC2=[N+]3C1=C(c1c(F)c(F)c(F)c(F)c1F)c1ccc4[n]1[Ga-]31[n]3c(ccc32)C(c2c(F)c(F)c(F)c(F)c2F)=c2ccc([n]21)=C4c1c(F)c(F)c(F)c(F)c1F (stereo not shown) [Complex 4]	11.1	12.9	15.3	4.8	–	IC50 lower than bis-sulfonated Complex 2 (DU-145; DU-145, 72 h, MTS): −12 fold
N.N.[Cl][Pt][Cl] [cisplatin]	–	–	–	–	–	IC50 (MDA-MB-231 cells): 46.4 µM and 39 µM
C[n+]1ccccc1C1=C2C=CC3=[N+]2[Mn-]24[n]5c1ccc5C(c1cccc[n+]1C)=c1ccc([n]12)=C(c1cccc[n+]1C)c1ccc3[n]14 (stereo not shown) [Complex 6]	–	–	–	–	completely ablated toxicity	–
O=S(=O)(O)C1=CC2=C(c3c(F)c(F)c(F)c(F)c3F)c3ccc4[n]3[Ga-]35[n]6c(cc(S(=O)(=O)O)c6C(c6c(F)c(F)c(F)c(F)c6F)=c6ccc([n]63)=C4c3c(F)c(F)c(F)c(F)c3F)C1=[N+]25 (stereo not shown) [Complex 2]	274	159	129	131	–	antitumor activity in vivo (murine model animals): potent antitumor activity; antitumor activity in vitro (human cancer cells; human cancer cells): potent antitumor activity; mechanism of cytotoxicity: cell cycle effect (human cancer cells; numerous cancer cell lines in vitro): induce cell cycle arrest at late M phase; IC50 (DU-145; listed as 2): 159 µM; time required to label >80% of cells from all four cancer lines ([1]; 37° C., dark): ≤ 24 h
